The data set in a line: in-vitro permeation study utilizing modified Franz cells (flux). The class given is in vitro ADME, human. As to conditions: diclofenac sodium, acid and potassium as single entities in formulations similar to the examples; particularly with oleic acid and dipropylene glycol. As to the method:
The flux data was collected from an in-vitro permeation study utilizing modified Franz cells with stratum corneum obtained from human cadaver skin by the heat separation technique. The receiver solution for this study was 0.9% NaCl with 0.01% NaN3 in deionized water. Franz cells were maintained at about 32° C. for the duration of this study. Flux samples were analyzed by HPLC.

On to `O=C(O)Cc1ccccc1Nc1c(Cl)cccc1Cl` [diclofenac potassium], for which the “flux rate, drug forms fluxed as single entities” value was “highest rate”.

For the origin of these results see patent US8852628B1, “Transdermal drug delivery system for diclofenac” (Noven Pharmaceuticals, Inc., priority 2009, dated 2014).
